Data set [1] concerns NCI-28H cells. Kind of data set: Cytotoxicity assay (MTS) of NCI-28H cells: carboplatin, mitomycin, gemcitabine, talc, talc bound to drugs (Example 22). The conditions noted are these: for % survival from untreated cells: cells + drug, carboplatin / Average reading: cells + drug, carboplatin / % survival from untreated cells: cells + drug, gemcitabine / Average reading: cells + drug, gemcitabine: NCI-28H cells; for Average reading: cells + drug, carboplatin / Average reading: cells + drug, gemcitabine: absorbance 490 nm. The method, then: Read absorbance (MTS assay) and calculate cells survive rate. Compare survival rate
1. Set up 3 cytotoxicity plates for tomorrow experiment: trypsinize NCI-28H cells (T-75 flask, passage 12): • Remove old medium, wash cells with 7 ml DPBS, remove DPBS, add 2 ml trypsin, incubate plates for 1-2′, when cells detached add 6 ml fresh medium, mix cells and medium. • Count cells under the microscope using the glass slide. […] If we need 200 wells, in each well will be 5,000 cells in 0.1 ml; so total we need 1,000,000 cells in 20 ml.
2. […] Final solution is 500 μL of 500 μM carboplatin.
4. […] Final solution is 500 μL of 200 μM Gemcitabine.
(§1) 1. Centrifuge tubes at 3200 rpm for 3 min. Take out supernatant.
3. Add 100 μL of each 8 preparations of diluted carboplatin (step 1 and 2) to the proper wells according to a plate layout.
4. Add 100 μL of each 8 preparations of diluted Gemcitabine (step 1, 2, 3) to the proper wells according to a plate layout.
6. Check the plate and start incubation at 37° C./5% CO2.
3. Wash all cells 1×300 μL DPBS, remove final wash.

In data set [2] the test system is NCI-28H cells. Kind of data set: Cytotoxicity assay (MTS) of NCI-28H cells: doxorubicin, cisplatin, paclitaxel, talc, talc bound to drugs (Example 21). The data set is classed as cell-based. The conditions noted are these: for Average reading: cells + cisplatin / % survival from untreated cells (cells + cisplatin) / % survival from untreated by DOX cells / % survival (cells + drug) / Average readings: cells + drug / AVERAGE: cells + DOX: NCI-28H cells; for Average reading: cells + cisplatin / Average readings: cells + drug / AVERAGE: cells + DOX: absorbance 490 nm. As for the experimental part:
Read absorbance (MTS assay) and calculate cells survival rate. Compare survival rate between each formulation.
1. Set up 3 cytotoxicity plates for Day 2 experiment: trypsinize NCI-28H cells (T-75 flask, passage 12): • Remove old medium, wash cells with 7 ml DPBS, remove DPBS, add 2 ml trypsin, incubate plates for 1-2′, when cells detached add 6 ml fresh medium, mix cells and medium. • Count cells under the microscope using the glass slide. […] If we need 200 wells, in each well will be 5,000 cells in 0.1 ml; so total we need 1,000,000 cells in 20 ml. […] In 50 ml Falcon tube, combine 16.6 ml fresh medium and 3.4 ml cells. Gently mix.
3. […] Final solution is 500 μL of 20 μM.
as §1
6. Check the plate and start incubation at 37° C./5% CO2
3. Wash cells 1×300 μL media, remove final wash.

The next data set deals with NCI-2052H cells. Kind of data set: Cytotoxicity assay (MTS) of NCI-2052H cells: bleomycin, mitomycin, doxorubicin, paclitaxel, talc, talc bound to drugs (Example 23). It is filed as cell-based. The conditions noted are these: for Average reading: cells + drug, paclitaxel: absorbance 490 nm.

This is an account of results in patent publication US20190216956A1, “COMPOSITIONS FOR RADIOTHERAPY AND USES THEREOF” (priority 2016, published 2019).

Several values for one entry are separate records, joined by “and”; a condition that tells them apart may be missing. Equal entries are not always repeated.

As for talc, in the data set on NCI-28H cells [1], the “cytotoxic effect on NCI-28H cells (comparison)” value was “clear cytotoxic effect”.
Turning to `N.N.[Cl][Pt][Cl]` [cisplatin], the “Average reading: cells + cisplatin” value in the data set on NCI-28H cells [2] (Cisplatin 0.0013 μM) was found to be 1.37; in the data set with NCI-28H cells [2] (Cisplatin 0.0064 μM), 1.19; in the data set on NCI-28H cells [2] (Cisplatin 0.8 μM), 1.23; with NCI-28H cells [2] (Cisplatin 4 μM), 1.18; in the data set with NCI-28H cells [2] (Cisplatin 20 μM), 0.48; in the data set with NCI-28H cells [2] (Cisplatin 100 μM), 0.59. For the same compound, the “% survival from untreated cells (cells + cisplatin)” value with NCI-28H cells [2] (cisplatin 0.0013 (μM per Table 64)) is given as 91.07%; in the data set on NCI-28H cells [2] (cisplatin 0.0064 (μM per Table 64)) it was 79.21%; in the data set on NCI-28H cells [2] (cisplatin 0.032 (μM per Table 64)), 76.66%; in the data set on NCI-28H cells [2] (cisplatin 0.16 (μM per Table 64)) it was 79.74%; with NCI-28H cells [2] (cisplatin 0.8 (μM per Table 64)), 82.09%; in the data set on NCI-28H cells [2] (cisplatin 4 (μM per Table 64)), 78.41%. The “% survival from untreated cells (cells + cisplatin)” value in the data set with NCI-28H cells [2] (cisplatin 20 (μM per Table 64)) is 31.99%; in the data set with NCI-28H cells [2] (cisplatin 100 (μM per Table 64)) it was 39.35%.
Consider `COc1cccc2c1C(=O)c1c(O)c3c(c(O)c1C2=O)C[C@@](O)(C(=O)CO)C[C@@H]3O[C@H]1C[C@H](N)[C@H](O)[C@H](C)O1` [Dox], for which the “% survival from untreated by DOX cells” value in the data set on NCI-28H cells [2] (Dox 0.064 nM) is given as 86.3%; in the data set on NCI-28H cells [2] (Dox 8 nM), 83.4%; in the data set on NCI-28H cells [2] (Dox 40 nM), 77.4%; in the data set on NCI-28H cells [2] (Dox 200 nM), 65.0%; in the data set with NCI-28H cells [2] (Dox 1000 nM), 48.6%; in the data set with NCI-28H cells [2] (Dox 5000 nM), 46.2%.
As for `CC(=O)O[C@H]1C(=O)[C@@]2(C)[C@H]([C@H](OC(=O)c3ccccc3)[C@]3(O)C[C@H](OC(=O)[C@H](O)[C@@H](NC(=O)c4ccccc4)c4ccccc4)C(C)=C1C3(C)C)[C@]1(OC(C)=O)CO[C@@H]1C[C@@H]2O` [Paclitaxel], the “% survival (cells + drug)” value came out at 102.50% in the data set on NCI-28H cells [2] (Paclitaxel 0.13 nM); 86.98% in the data set with NCI-28H cells [2] (Paclitaxel 0.68 nM); 89.85% with NCI-28H cells [2] (Paclitaxel 3.5 nM); 84.47% in the data set on NCI-28H cells [2] (Paclitaxel 16 nM); 71.81% in the data set on NCI-28H cells [2] (Paclitaxel 80 nM); 66.39% in the data set with NCI-28H cells [2] (Paclitaxel 400 nM). The “% survival (cells + drug)” value in the data set on NCI-28H cells [2] (Paclitaxel 2000 nM) is recorded as 62.43%; in the data set with NCI-28H cells [2] (Paclitaxel 10,000 nM) it was 60.71%. The “Average readings: cells + drug” value in the data set on NCI-28H cells [2] (Paclitaxel 0.13 nM) was 1.56; with NCI-28H cells [2] (Paclitaxel 0.68 nM) it was 1.33; in the data set with NCI-28H cells [2] (Paclitaxel 3.5 nM) it was 1.37; in the data set with NCI-28H cells [2] (Paclitaxel 16 nM), 1.29; in the data set on NCI-28H cells [2] (Paclitaxel 80 nM), 1.10. Further, the “Average reading: cells + drug, paclitaxel” value in the data set on NCI-2052H cells (Paclitaxel 0.256 nM) came out at 1.4273; in the data set on NCI-2052H cells (Paclitaxel 6.4 nM), 1.54; with NCI-2052H cells (Paclitaxel 32 nM), 0.5818; with NCI-2052H cells (Paclitaxel 160 nM) it was 0.4361; with NCI-2052H cells (Paclitaxel 800 nM), 0.4326; in the data set with NCI-2052H cells (Paclitaxel 4000 nM) it was 0.553. Further, the “Average reading: cells + drug, paclitaxel” value in the data set with NCI-2052H cells (Paclitaxel 20,000 nM) worked out at 0.1647. The “% survival from untreated cells” value in the data set on NCI-2052H cells (paclitaxel 0.256 (nM per Table 97)) came out at 83.84%; with NCI-2052H cells (paclitaxel 1.28 (nM per Table 97)), 93.24%; in the data set with NCI-2052H cells (paclitaxel 6.4 (nM per Table 97)), 90.43%; in the data set on NCI-2052H cells (paclitaxel 32 (nM per Table 97)) it was 34.17%; in the data set on NCI-2052H cells (paclitaxel 160 (nM per Table 97)), 25.61%; in the data set on NCI-2052H cells (paclitaxel 800 (nM per Table 97)), 25.41%. The “% survival from untreated cells” value in the data set on NCI-2052H cells (paclitaxel 4000 (nM per Table 97)) turned out to be 32.48%; in the data set with NCI-2052H cells (paclitaxel 20,000 (nM per Table 97)), 9.67%.
For `N.N.O=C([O-])C1(C(=O)[O-])CCC1.[Pt+2]` [carboplatin], the “% survival from untreated cells: cells + drug, carboplatin” value in the data set with NCI-28H cells [1] (carboplatin 0.006 μM) is 90.84% and 94.28%; with NCI-28H cells [1] (carboplatin 0.8 μM), 85.98% and 87.53%; in the data set with NCI-28H cells [1] (carboplatin 4 μM) it was 96.93% and 93.62%; in the data set on NCI-28H cells [1] (carboplatin 20 μM) it was 104.81% and 99.20%; in the data set with NCI-28H cells [1] (carboplatin 100 μM), 83.82% and 79.53%; in the data set on NCI-28H cells [1] (carboplatin 500 μM), 37.38% and 35.14%. Moreover, the “Average reading: cells + drug, carboplatin” value in the data set on NCI-28H cells [1] (carboplatin 0.006 μM) stood at 1.504; in the data set on NCI-28H cells [1] (carboplatin 0.8 μM), 1.4238; in the data set on NCI-28H cells [1] (carboplatin 4 μM) it was 1.605; with NCI-28H cells [1] (carboplatin 20 μM), 1.7355; in the data set on NCI-28H cells [1] (carboplatin 100 μM), 1.388; in the data set with NCI-28H cells [1] (carboplatin 500 μM), 0.6189.
Take `COc1cccc2c1C(=O)c1c(O)c3c(c(O)c1C2=O)C[C@@](O)(C(=O)CO)C[C@@H]3O[C@H]1C[C@H](N)[C@H](O)[C@H](C)O1` [DOX]: in the data set on NCI-28H cells [2] (125 nM DOX), the “% survival NCI-28H cells after different treatment (compare to untreated cells)” value was 70%. The “AVERAGE: cells + DOX” value with NCI-28H cells [2] (DOX 0.000064 μM) was 1.18; in the data set with NCI-28H cells [2] (DOX 0.2 μM), 0.89; in the data set on NCI-28H cells [2] (DOX 1 μM) it was 0.67; in the data set on NCI-28H cells [2] (DOX 5 μM), 0.63.
`Nc1ccn([C@@H]2O[C@H](CO)[C@@H](O)C2(F)F)c(=O)n1` [gemcitabine]: the “cytotoxic effect on NCI-28H cells (comparison)” value in the data set with NCI-28H cells [1] was “clear cytotoxic effect”. Further, the “% survival from untreated cells: cells + drug, gemcitabine” value in the data set on NCI-28H cells [1] (gemcitabine 0.0026 μM) stood at 114.61%; with NCI-28H cells [1] (gemcitabine 0.013 μM) it was 107.85%; in the data set on NCI-28H cells [1] (gemcitabine 0.064 μM), 80.60%; with NCI-28H cells [1] (gemcitabine 8 μM), 56.58%; in the data set on NCI-28H cells [1] (gemcitabine 40 μM) it was 60.09%; in the data set on NCI-28H cells [1] (gemcitabine 200 μM), 52.70%. Besides, the “Average reading: cells + drug, gemcitabine” value in the data set with NCI-28H cells [1] (gemcitabine 0.0026 μM) is given as 2.034; with NCI-28H cells [1] (gemcitabine 0.013 μM), 1.914; in the data set with NCI-28H cells [1] (gemcitabine 0.064 μM), 1.43; in the data set on NCI-28H cells [1] (gemcitabine 8 μM), 1.004; in the data set with NCI-28H cells [1] (gemcitabine 40 μM), 1.0663; in the data set with NCI-28H cells [1] (gemcitabine 200 μM), 0.9352.
